Laboratory results from ChEMBL document CHEMBL3352019, “Recent developments in biological activities of chalcones: a mini review” (Eur J Med Chem, 2014).
Values after ≈ are worked out from the molar mass of the structure shown. Each block holds one compound with its values, some of them ahead of it.

Experiments:
[1] = test system: MDA-MB-231; test: Anticancer activity against human MDA-MB-231 cells; format: functional, cell-based
[2] = test system: Plasmodium falciparum; test: Antimalarial activity against Plasmodium falciparum asexual blood stage forms; format: functional, organism-based
[3] = test system: Plasmodium falciparum; test: Antimalarial activity against Plasmodium falciparum K1; format: functional, organism-based
[4] = test system: Klebsiella aerogenes; test: Antimicrobial activity against Enterobacter aerogenes by cup-plate agar diffusion method; format: functional
[5] = test system: Staphylococcus aureus; test: Antimicrobial activity against Staphylococcus aureus by cup-plate agar diffusion method; format: functional
[6] = test system: Aspergillus niger; test: Antimicrobial activity against Aspergillus niger by cup-plate agar diffusion method; format: functional
[7] = test system: Bacillus; test: Antimicrobial activity against Bacillus coccus by cup-plate agar diffusion method; format: functional
[8] = test system: Bacillus pumilus; test: Antimicrobial activity against Bacillus pumilus at 50 ug/mL; format: functional; settings: read-out: IZ
[9] = test system: Bacillus subtilis; test: Antimicrobial activity against Bacillus subtilis at 50 ug/mL; format: functional; settings: read-out: IZ
[10] = test system: Escherichia coli; test: Antimicrobial activity against Escherichia coli at 50 ug/mL; format: functional; settings: read-out: IZ
[11] = test system: Aspergillus niger; test: Antimicrobial activity against Aspergillus niger at 50 ug/mL; format: functional; settings: read-out: IZ
[12] = test system: Penicillium chrysogenum; test: Antimicrobial activity against Penicillium chrysogenum; format: functional
[13] = test system: Bacillus subtilis; test: Antimicrobial activity against Bacillus subtilis; format: functional
[14] = test system: Escherichia coli; test: Antimicrobial activity against Escherichia coli; format: functional
[15] = test system: Candida albicans; test: Antimicrobial activity against Candida albicans; format: functional
[16] = test system: Rattus norvegicus; test: Inhibition of inflammation in rat carrageenan-induced rat hind paw edema model; format: functional
[17] = test system: Rattus norvegicus; test: Inhibition of inflammation in rat carrageenan-induced rat acute paw edema model; format: functional
[18] = test system: Leishmania major; test: Antiprotozoal activity against Leishmania major promastigote forms; format: functional, organism-based
[19] = Antioxidant activity assessed as […] free radical scavenging activity; format: physicochemical
[20] = test system: Micrococcus luteus; test: Antimicrobial activity against Micrococcus luteus; format: functional
[21] = test system: Staphylococcus epidermidis; test: Antimicrobial activity against Staphylococcus epidermidis; format: functional
[22] = test system: Plasmodium falciparum; test: Antimalarial activity against CQ-resistant Plasmodium falciparum W2; format: functional, organism-based
[23] = organism: Rattus norvegicus; test: Inhibition of inflammation in rat cotton pellet-induced granuloma model; format: functional
[24] = Anticancer activity against human HSC3 cells; format: functional, cell-based; settings: HSC-3
[25] = test system: Staphylococcus aureus; test: Antimicrobial activity against Staphylococcus aureus; format: functional

- IC50 [1]: 7.02 µM
Compound: O=C(/C=C/c1cccc(Br)c1)C1=Cc2cc(Cl)ccc2OC1

Compound: COc1ccc(/C=C/C(=O)c2ccc(-n3cnc4ccccc43)cc2)c(OC)c1
- IC50 [2]: 1.1 µg/mL (≈ 2.86 µM)

- IC50 [3]: 7.4 µM
Compound: COc1ccc(/C=C/C(=O)c2c(O)cccc2O)cc1

Compound: COc1ccc(C(=O)/C=C/c2c(-c3ccc(Br)cc3)nc3ccccn23)cc1
- inhibition zone (IZ) [4]: 19 mm

Compound: O=C(/C=C/c1c(-c2ccc(Br)cc2)nc2ccccn12)c1ccc(Cl)cc1
- inhibition zone (IZ) [5]: 19 mm

Compound: Cc1ccc(C(=O)/C=C/c2c(-c3ccc(Br)cc3)nc3ccccn23)c(O)c1
- inhibition zone (IZ) [6]: 20 mm
- inhibition zone (IZ) [7]: 19 mm

Compound: COc1ccc(/C=C/C(=O)c2ccc(Cl)cc2Cl)cc1
- zone of inhibition at 50 µg/mL [8]: 8 mm
- zone of inhibition at 50 µg/mL [9]: 13 mm
- zone of inhibition at 50 µg/mL [10]: 15 mm

Compound: O=C(/C=C/c1cccc2ccccc12)c1ccc(Cl)cc1Cl
- zone of inhibition at 50 µg/mL [11]: 12 mm

Compound: C[C@]12CC[C@H]3[C@@H](CC=C4CC(O)CC[C@@]43C)[C@@H]1CC[C@@H]2C(=O)/C=C/c1ccccc1 (some centres undefined)
- inhibition zone (IZ) [12]: 10 mm
- inhibition zone (IZ) [13]: 19 mm

Compound: O=C(/C=C/c1ccccc1)N1N=C(c2ccc(Cl)cc2)CC1c1c2ccccc2cc2ccccc12 (centres undefined)
- inhibition zone (IZ) [14]: 22 mm
- inhibition zone (IZ) [15]: 12 mm

Compound: O=C(/C=C/c1ccccc1)c1nn(-c2ccccc2)c(-c2ccccc2)c1S(=O)(=O)c1ccccc1
- inhibition (INH) [16]: 83.77%

Compound: Cc1nc2ccc(Cl)cc2c(-c2ccccc2)c1C(=O)/C=C/c1ccco1
- inhibition (INH) [17]: 81.78%

- IC50 ([18]; Leishmania major): < 1 µM
Compound: COc1ccc2c(c1)C=C(C(=O)/C=C/c1ccc(Cl)c(Cl)c1)CO2

- IC50 ([18]; Leishmania major): < 1 µM
Compound: COc1ccc2c(c1)C=C(/C=C/C(=O)c1ccc(Cl)c(Cl)c1)CO2

- inhibition (INH) [19]: 89.64%
Compound: C=CCc1ccc(/C=C/C(=O)c2cc(C)ccc2O)cc1O

- MIC [20]: 2000 µg/mL (≈ 5670 µM)
- MIC ([13]; Bacillus subtilis): 2000 µg/mL (≈ 5670 µM)
- MIC [21]: 2000 µg/mL (≈ 5670 µM)
Compound: COc1ccc(/C=C/C(=O)c2ccc(OC)c(CC=C(C)C)c2O)cc1

Compound: COc1ccc(/C=C/C(=O)c2ccccc2)cc1S(=O)(=O)N1CCOCC1
- IC50 [22]: 2.06 µM

Compound: O=C(/C=C/c1ccc(F)cc1)c1ccc(O)cc1
- inhibition (INH) [23]: 36.8%

- IC50 [24]: 4.9 µg/mL (≈ 17.2 µM)
Compound: COc1cc(O)c(C(=O)/C=C/c2ccccc2)c(OC)c1 [FLAVOKAWAIN B]

- MIC [25]: 15.6 µg/mL (≈ 60.9 µM)
Compound: O=C(/C=C/c1ccc(O)cc1)c1ccc(O)cc1O [ISOLIQUIRITIGENIN]

Compound: C=CC(C)(C)c1cc(/C=C/C(=O)c2ccc(O)cc2)c(OC)cc1O [LICOAGROCHACONE A]
- IC50 [2]: 1.43 µg/mL (≈ 4.23 µM)

Compound: MEGLUMINE ANTIMONATE
- IC50 [18]: < 82 µM
